Tested on: mechanical (tactile) allodynia in the left hind paw
Assay: Assay Method 3: Rat Mild Thermal Injury Model (MTI), mechanical allodynia
Type: in vivo, Sprague-Dawley rats
Settings: 10 mg/Kg p.o.; 0.5 h after administration; mean +/- S.E.M.
Description: Assay Method 3—Rat Mild Thermal Injury Model (MTI)
Pathogen-free, male albino Sprague-Dawley rats were purchased from Harlan Industries (San Diego, Calif.) and maintained on a 12-h light/dark cycle (lights on at 9:00 AM and off at 9:00 PM) in a climate-controlled room. Food and water were available ad libitum up to the time of the testing.
Under isoflurane/oxygen anesthesia, a first-degree burn injury (erythema without blistering) was produced as follows: the plantar surface of the rat's left hind paw was placed on water-dampened 56° C. hotplate for 20 seconds and steady contact was maintained by applying an 84 g weight to the dorsum (after Nozaki-Taguchi & Yaksh, Neurosci. Lett. 1998, 254, 25-28).
Mild thermal injury results in mechanical allodynia in the left hind paw. Mechanical (tactile) allodynia was assessed by determining the median threshold at which the affected paw was withdrawn from graded stimuli (von Frey filaments ranging from 0.41 to 15.8 g) applied perpendicularly with sufficient force to bend slightly and held for 2-3 seconds against the proximal half of the third and fourth toe surfaces through wire-mesh observation cages. Paw flinching during or immediately following the removal of the stimulus was considered a positive response. A paw withdrawal threshold (PWT) was determined by sequentially increasing and decreasing the stimulus strength and analyzing withdrawal data using an adaptation of the Dixon up-down method, as described (Chaplan et al., J. Neurosci. 1994, 53, 55-63). Rats were included in the study only if their baseline PWT was 3.1623 g or lower (4.5 logarithmically).
Rats were tested for pre-injury thresholds prior to mild thermal injury and again for baseline thresholds after development of mechanical allodynia. Immediately after baseline measurement, test compound or vehicle was administered orally and the measurement was repeated at 0.5 h after administration. The tactile thresholds (log value) were converted to percent of a maximum possible effect ( %MPE): % MPE=[Threshold(t)−Threshold(baseline)]*100/[Threshold(pre)−Threshold(baseline)], where t=post-treatment time. Data were expressed as mean±standard error of the mean (S.E.M.). Statistical analysis was performed using two-way ANOVA with repeated measures with a significance level of p<0.05.
Results for compounds tested in this assay are presented in Table 2, as an average of results obtained. Compounds were tested in free base, hydrochloride salt, and/or trifluoroacetic acid salt forms.

SMILES | % MPE
O=C(Nc1noc2cc(F)ccc12)N1CCN(Cc2cccc(Oc3ccc(Cl)cc3)c2)CC1 [Example 245, 4-[3-(4-Chloro-phenoxy)-benzyl]-piperazine-1-carboxylic acid (6-fluoro-benzo[d]isoxazol-3-yl)-amide] | 36 +/− 10%
O=C(Nc1noc2ccccc12)N1CCN(Cc2cccc(Oc3ccc(C(F)(F)F)cc3)c2)CC1 [Example 109, N-1,2-Benzisoxazol-3-yl-4-{3-[4-(trifluoromethyl)phenoxy]benzyl}-piperazine-1-carboxamide] | 0%

— patent publication US20090062294A1, “HETEROARYL-SUBSTITUTED UREA MODULATORS OF FATTY ACID AMIDE HYDROLASE” (priority 2007, published 2009)
